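Values below derive from 48-hour exposures of cells grown in 96-well plates, with endpoints linearly interpolated between the two concentrations bracketing the appropriate inhibition level. TGI denotes the concentration required for complete inhibition of growth.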 Where a SMILES comes first, the peptide text is derived from it. [ ]: non-standard residue; d: D form. ξ: configuration not given here. Pentanoyl(2-O,4-OH,5-Cl) = O=C(O)C(O)CC(O)CCl; Ile(3ξ) = CCC(C)[C@H](N)C(=O)O; NMeV = CN[C@H](C(=O)O)C(C)C; NMeA = CN[C@@H](C)C(=O)O; βAla = NCCC(=O)O
Columns and labels:
Assay in all cases: inhibition of tumour cell growth, NCI panel, 48 h
[1] = test system: HCT-15 colon
[2] = test system: NCI/ADR-RES ovarian
[3] = test system: NCI-H460 lung
[4] = test system: HOP-92 NSCLC
[5] = test system: SR leukemia
[6] = test system: SK-MEL-2 melanoma
[7] = test system: HCC-2998 colon
[8] = test system: SF-539 CNS
[9] = test system: OVCAR-3 ovarian
[10] = test system: DU-145 prostate
[11] = test system: MCF7 breast
[12] = test system: PC-3 prostate
[13] = test system: U251 CNS
[14] = test system: 786-0 renal
[15] = test system: COLO 205 colon
[16] = test system: SN12C renal
[17] = test system: SK-MEL-5 melanoma
[18] = test system: SW-620 colon
[19] = test system: MDA-N
[20] = test system: OVCAR-5 ovarian
[21] = test system: SNB-19 CNS
[22] = test system: ACHN renal
[23] = test system: MDA-MB-435
[24] = test system: HCT-116 colon
[25] = test system: T-47D breast
[26] = test system: NCI-H226 lung
[27] = test system: SF-268 CNS
[28] = test system: M14 melanoma
[29] = test system: OVCAR-4 ovarian
[30] = test system: RXF 393 renal
[31] = test system: UACC-257 melanoma
[32] = test system: A549 NSCLC
[33] = test system: IGROV1 ovarian
[34] = test system: MDA-MB-231 breast
[35] = test system: HS 578T breast
[36] = test system: RPMI-8226 leukemia
[37] = test system: EKVX NSCLC
[38] = test system: MALME-3M melanoma
[39] = test system: NCI-H23 lung
[40] = test system: OVCAR-8 ovarian
[41] = test system: HOP-62 NSCLC
[42] = test system: SK-MEL-28 melanoma
[43] = test system: LOX IMVI melanoma
[44] = test system: CCRF-CEM leukemia
[45] = test system: UACC-62 melanoma
[46] = test system: CAKI-1 renal
[47] = test system: SNB-75 CNS
[48] = test system: UO-31 renal
[49] = test system: SF-295 CNS
[50] = test system: A498 renal
[51] = test system: TK-10 renal
[52] = test system: SK-OV-3 ovarian
[53] = test system: HT29 colon
[54] = test system: BT-549 breast
[55] = test system: NCI-H522 lung
[56] = test system: MOLT-4 leukemia
[57] = test system: KM12 colon
[58] = test system: HL-60(TB) leukemia
[59] = test system: K-562 leukemia

Structure (SMILES): C=C1C(=O)O[C@@H]2C[C@@]3(C)CCC[C@H](C)C3=C[C@H]12 (tested in a mixture with another compound)
- TGI [1]: 4.39 µM
- TGI [2]: 5.2 µM
- TGI [3]: 14.3 µM
- TGI [4]: 3.48 µM
- TGI [5]: 3.26 µM
- TGI [6]: 5.41 µM
- TGI [7]: 15.5 µM
- TGI [8]: 4.85 µM
- TGI [9]: 3.44 µM
- TGI [10]: 8.67 µM
- TGI [11]: 10.7 µM
- TGI [12]: 10 µM
- TGI [13]: 9.93 µM
- TGI [14]: 2.83 µM
- TGI [15]: 3.18 µM
- TGI [16]: 3.44 µM
- TGI [17]: 3.9 µM
- TGI [18]: 3.97 µM
- TGI [19]: 7.08 µM
- TGI [20]: 15.8 µM
- TGI [21]: 22.4 µM
- TGI [22]: 6.98 µM
- TGI [23]: 3.72 µM
- TGI [24]: 2.93 µM
- TGI [25]: 3.18 µM
- TGI [26]: 16.6 µM
- TGI [27]: 7.2 µM
- TGI [28]: 2.75 µM
- TGI [29]: 6.45 µM
- TGI [30]: 4.07 µM
- TGI [31]: 3.75 µM
- TGI [32]: 18.6 µM
- TGI [33]: 7.71 µM
- TGI [34]: 6.72 µM
- TGI [35]: 17.3 µM
- TGI [36]: 4.05 µM
- TGI [37]: 15 µM
- TGI [38]: 2.42 µM
- TGI [39]: 5.67 µM
- TGI [40]: 3.13 µM
- TGI [41]: 7.74 µM
- TGI [42]: 5.13 µM
- TGI [43]: 11.7 µM
- TGI [44]: > 100 µM
- TGI [45]: 6.94 µM
- TGI [46]: 3.57 µM
- TGI [47]: 5.6 µM
- TGI [48]: 3.57 µM
- TGI [49]: 24.6 µM
- TGI [50]: 3.58 µM
- TGI [51]: 6.92 µM
- TGI [52]: 22.7 µM
- TGI [53]: 5.34 µM
- TGI [54]: 3.31 µM
- TGI [55]: 2.94 µM
- TGI [56]: 3.73 µM
- TGI [57]: 8.89 µM

Structure (SMILES): Cc1ccc(S(=O)(=O)N(CC(O)COc2ccccc2)c2c(F)c(F)c(F)c(F)c2F)cc1 (centres undefined)
- TGI [1]: 33 µM
- TGI [2]: 35.1 µM
- TGI [3]: 30.3 µM
- TGI [4]: 21.7 µM
- TGI [5]: 47.7 µM
- TGI [6]: 30 µM
- TGI [7]: 34.5 µM
- TGI [8]: 34.4 µM
- TGI [9]: 38.9 µM
- TGI [10]: 72.9 µM
- TGI [11]: 23.2 µM
- TGI [12]: 29.2 µM
- TGI [13]: 27.9 µM
- TGI [14]: 38.8 µM
- TGI [15]: 29.8 µM
- TGI [16]: 37.7 µM
- TGI [17]: 25.5 µM
- TGI [18]: 36.2 µM
- TGI [19]: 32.7 µM
- TGI [20]: 34.1 µM
- TGI [21]: 43.3 µM
- TGI [22]: 32 µM
- TGI [23]: 34.5 µM
- TGI [24]: 44 µM
- TGI [25]: 52.4 µM
- TGI [26]: 42.7 µM
- TGI [27]: 30.9 µM
- TGI [28]: 41 µM
- TGI [29]: 29.2 µM
- TGI [32]: 36.8 µM
- TGI [34]: 30.7 µM
- TGI [35]: 42.6 µM
- TGI [36]: 12.7 µM
- TGI [37]: 35.3 µM
- TGI [38]: 53.1 µM
- TGI [39]: 29.6 µM
- TGI [40]: 32.8 µM
- TGI [41]: 35.2 µM
- TGI [42]: 31.6 µM
- TGI [58]: 42.2 µM
- TGI [43]: 28.6 µM
- TGI [45]: 33.5 µM
- TGI [46]: 26.7 µM
- TGI [47]: 36.5 µM
- TGI [48]: 25.1 µM
- TGI [49]: 37.4 µM
- TGI [50]: 33.2 µM
- TGI [51]: 71.1 µM
- TGI [52]: 43.8 µM
- TGI [53]: 33 µM
- TGI [54]: 28.7 µM
- TGI [56]: 56.4 µM
- TGI [57]: > 100 µM

Structure (SMILES): CCC(C)[C@@H]1NC(=O)[C@@H]2CCCN2C(=O)C(CC(O)CCl)OC(=O)CCNC(=O)[C@H](C)N(C)C(=O)[C@H](C(C)C)N(C)C1=O (some centres undefined) (cyclo([Ile(3ξ)][NMeV][NMeA][βAla][Pentanoyl(2-O,4-OH,5-Cl)]P))
- TGI [1]: > 100 µM
- TGI [2]: > 100 µM
- TGI [3]: > 100 µM
- TGI [4]: 8.13 µM
- TGI [5]: > 100 µM
- TGI [6]: 1.89 µM
- TGI [8]: > 100 µM
- TGI [9]: > 100 µM
- TGI [10]: > 100 µM
- TGI [11]: > 100 µM
- TGI [12]: > 100 µM
- TGI [13]: > 100 µM
- TGI [14]: > 86.2 µM
- TGI [15]: > 31.6 µM
- TGI [16]: > 100 µM
- TGI [17]: 2.29 µM
- TGI [18]: > 100 µM
- TGI [19]: > 100 µM
- TGI [20]: > 100 µM
- TGI [21]: > 100 µM
- TGI [22]: > 100 µM
- TGI [23]: > 100 µM
- TGI [24]: > 100 µM
- TGI [25]: > 100 µM
- TGI [26]: > 100 µM
- TGI [27]: > 100 µM
- TGI [28]: 3.09 µM
- TGI [29]: > 100 µM
- TGI [30]: > 100 µM
- TGI [31]: > 86 µM
- TGI [32]: > 100 µM
- TGI [33]: > 100 µM
- TGI [59]: > 100 µM
- TGI [34]: > 100 µM
- TGI [35]: > 100 µM
- TGI [36]: > 100 µM
- TGI [37]: > 100 µM
- TGI [38]: > 100 µM
- TGI [39]: > 100 µM
- TGI [40]: > 100 µM
- TGI [41]: > 100 µM
- TGI [42]: > 100 µM
- TGI [58]: > 100 µM
- TGI [44]: > 100 µM
- TGI [45]: 7.71 µM
- TGI [46]: > 100 µM
- TGI [47]: > 100 µM
- TGI [48]: > 100 µM
- TGI [49]: 70.4 µM
- TGI [50]: > 93.5 µM
- TGI [51]: > 100 µM
- TGI [52]: > 100 µM
- TGI [53]: > 100 µM
- TGI [54]: > 100 µM
- TGI [55]: > 100 µM
- TGI [56]: > 100 µM
- TGI [57]: > 100 µM

Structure (SMILES): COc1cccc(C2CC(C)(O)Oc3cc4c(cc32)OCO4)c1 (centres undefined)
- TGI [1]: 83.3 µM
- TGI [2]: 59.3 µM
- TGI [3]: 53.6 µM
- TGI [4]: 93.3 µM
- TGI [5]: 23.8 µM
- TGI [6]: 43.6 µM
- TGI [7]: > 100 µM
- TGI [9]: 56 µM
- TGI [10]: > 100 µM
- TGI [11]: > 100 µM
- TGI [12]: > 100 µM
- TGI [13]: 86.5 µM
- TGI [14]: > 100 µM
- TGI [15]: 43.1 µM
- TGI [16]: > 100 µM
- TGI [17]: > 100 µM
- TGI [18]: > 100 µM
- TGI [19]: 7.84 µM
- TGI [20]: > 100 µM
- TGI [21]: > 100 µM
- TGI [22]: > 100 µM
- TGI [23]: 15.2 µM
- TGI [24]: 28.5 µM
- TGI [25]: > 100 µM
- TGI [26]: 53 µM
- TGI [27]: > 100 µM
- TGI [28]: > 100 µM
- TGI [29]: > 100 µM
- TGI [30]: > 100 µM
- TGI [31]: > 100 µM
- TGI [32]: > 100 µM
- TGI [33]: > 100 µM
- TGI [59]: > 100 µM
- TGI [34]: 96.2 µM
- TGI [35]: 49.6 µM
- TGI [36]: 66.2 µM
- TGI [37]: > 100 µM
- TGI [38]: > 100 µM
- TGI [39]: > 100 µM
- TGI [40]: > 100 µM
- TGI [41]: 74.4 µM
- TGI [42]: > 100 µM
- TGI [58]: > 100 µM
- TGI [43]: > 100 µM
- TGI [44]: > 100 µM
- TGI [45]: > 100 µM
- TGI [46]: > 100 µM
- TGI [47]: 61.7 µM
- TGI [48]: 72.2 µM
- TGI [49]: 95.7 µM
- TGI [51]: 80.2 µM
- TGI [52]: 67.2 µM
- TGI [53]: 28.8 µM
- TGI [54]: > 100 µM
- TGI [55]: 30.6 µM
- TGI [56]: 60.5 µM
- TGI [57]: > 100 µM

Reference: PubChem BioAssay (NCI)
